Reference: patent US20220298540A1, “METHOD AND REAGENTS FOR DETECTING LUCIFERASE ACTIVITY” (OBSCHESATVO S OGRANICHENNOY OTVETSTVENNOSTYU "PLANTA", priority 2019, published 2022)

What was measured:
[1] = Storage stability of freeze-dried substrate; format: physicochemical; conditions: −20° C.
Text: This new luciferin isolated by the present inventors has a unique structure that distinguishes it from all previously described natural luciferins. Thus, the basis of the Odontosyllis worm luciferin molecule is a condensed heterocycle—thieno[3,2-f]thiochromene consisting of two six-membered and one five-membered rings. Such complex condensed tricyclic structures have not previously been found as bioluminescent reaction substrates. It is also worth noting that thiopyran is named in the composition of natural bioluminescent substrates for the first time. Odontosyllis worm luciferin is a strongly polar molecule and represents a strong acid, since this molecule comprises three carboxyl substituents and also carries a sulfonic acid residue. Freeze-dried substrate is stored at −20° C. without decrease in activity for at least 30 days, more often at least 60 days, normally at least a year.

[2] = system: recombinant luciferase Odontosyllis undecimdonta; assay: Detecting luciferase in lysates of mammalian cells comprising recombinant luciferase; conditions: 1 μg in 100 μl tris-buffered saline pH 7.5, aliquots added to cell lysates with recombinant luciferase; FIG. 11
Experimental: Recombinant luciferase was obtained from luciferase complementary DNA synthesized as a linear double-stranded DNA fragment (Twist Biosciences, USA). Cloning was performed using the Golden Gate method. Eukaryotic cell expression plasmids were assembled into the plasmid of the MoClo pICH47742 kit as a backbone, and the following parts were cloned in level 0 vectors: cytomegalovirus promoter, luciferase candidate gene, termination codon comprising a part of DNA, and SV40 polyadenylation terminator. HEK293NT cells were transfected with FuGene 6 reagent plasmid (Promega, Fitchburg, Wis., USA) according to the manufacturer's protocol. The transfected cells were grown under standard conditions.
Lysates of mammalian cells comprising recombinant luciferase Odontosyllis undecimdonta were used as biological samples. Cell lysates were obtained as described above in the section “Obtaining native luciferase and recombinant luciferase samples”.

[3] = system: highly purified luciferase; assay: In vitro bioluminescence reaction, conversion of luciferin into oxyluciferin with highly purified luciferase; format: biochemical, Odontosyllis undecimdonta; conditions: 60 μL pure luciferin fraction, 40 μL tris-buffered saline, 20 μL highly purified luciferase; no luminescence in control tube
Experimental: Each tube contained 60 μL of pure luciferin fraction, 40 μL of tris-buffered saline and 20 μL of highly purified luciferase (see section below) or tris-buffered saline in case of negative control. […] The reaction was monitored by using 5 μl aliquots of the reaction and control mixtures, followed by stopping the reaction in 0, 5, 15, 30, 60, 120, 180, and 300 min by adding 20 μl of methanol and centrifugation, after that, the reversed-phase HPLC was used to analyze the supernatants. A Shim-Pack XR-ODS column (3.0×75 mm, 2.2 μm) was used in combination with a Nexera X2 system (Shimadzu, Japan). Solvent A is a 0.1% formic acid solution, pH 4.9, solvent B is acetonitrile. Elution was carried out in a linear gradient with the solvent B concentration from 1 to 20% (15 min) at a flow rate of 0.7 ml/min. Purified luciferase samples were obtained as a result of sequential purification of an aqueous extract of lyophilized worms: ion-exchange chromatography in a HiTrap Fast Flow column with DEAE-Sepharose (GE Healthcare, Uppsala, Sweden), ultrafiltration in an Amicon® Ultra centrifugal filter (Merck Millipore, Germany) and gel filtration chromatography in a Superdex 200 column ([…]).

[4] = system: Odontosyllis undecimdonta worm luciferase; assay: Detecting bioluminescence in cold extracts of Odontosyllis undecimdonta worms; format: biochemical; conditions: 1 μg in 100 μl tris-buffered saline pH 7.5, aliquots added to cold worm extracts; FIG. 12, FIG. 13
Experimental: Adding 5 ml of phosphate buffer (5 mM sodium phosphate buffer, pH 7.4) to 200 mg of lyophilized worms. Pipetting the mixture into liquid nitrogen to create small drops of frozen material, then grounding them in a mortar. Adding the frozen powder to 15 ml of phosphate buffer (5 mM sodium phosphate buffer, pH 7.4) and incubating for 40 minutes in an ice bath while stirring regularly. Centrifuging the mixture at 40,000 g (4° C.) for 40 min. Collecting the supernatant comprising luciferase, luciferin and oxyluciferin, freezing the cell-free extract and storing at −70° C. […] Extracts of Odontosyllis undecimdonta worms were used as biological samples. […]

[5] = Effect of light on luciferin; format: physicochemical; conditions: confirmed experimentally
Text: Formation of bioluminescence depends on the amount and preservation of luciferase in biological samples.

Structure (SMILES) | storage without decrease in activity [1] | luminescence of biological samples [2] | radiation (luminescence) in the course of the reaction [3] | luminescence of biological samples [4] | effect of light emission, especially the UV part of the spectrum [5]
O=C(O)C1=Cc2c(c(OS(=O)(=O)O)c(O)c3scc(C(=O)O)c23)SC1C(=O)O (stereo not drawn) [luciferin, 4-hydroxy-5-(sulfooxy)-7H-thieno[3,2-f]thiochromen-1,7,8-tricarboxylic acid] | at least 30 days | detected | Radiation was observed | detected | degradation and loss of functionality
O=C(O)C(=O)C1=C(C(=O)O)Cc2c(c(OS(=O)(=O)O)c(O)c3scc(C(=O)O)c23)S1 [pre-luciferin, 7-(carboxycarbonyl)-4-hydroxy-5-(sulfooxy)-9H-thieno[3,2-f]thiochromene-1,8-dicarboxylic acid] |  |  |  | detected | 
